Entries after “also recorded” stand apart in the source; their conditions may differ.
Test system: wound healing
Assay: Effect on wound healing (discovered in the context of the invention, no method given)
Format: in vivo
Details: present in a gel

CCOCCOCCO [ethoxydiglycol]
effect on wound healing: significantly slows wound healing; also recorded: significantly delays wound healing
